From patent US10864253B2, “Tissue protective peptides for preventing and treating diseases and disorders associated with tissue damage” (Araim Pharmaceuticals, Inc., priority 2016, dated 2020)

How the values were obtained:
[1] = tested on: STZ-induced diabetic mice; experiment: STZ-induced diabetic neuropathy mouse model, paw thermal withdrawal latency; assay type: in vivo; conditions: STZ diabetic Swiss Webster mice, FIG. 3
Description: To test a peptide in a diabetic neuropathy mouse model, male Swiss Webster mice are given a single injection of STZ (180 mg/kg i.p.) to induce insulin-deficient diabetes. Hyperglycemia is confirmed 3 days thereafter, and to ensure induction of sufficient neuropathy, only mice with blood glucose levels exceeding 15 mmol/l are used. […] The time from initiation of heating to paw withdrawal is recorded in 4 separate trials 5 minutes apart, with the median value of the last 3 trials used for each mouse. […]
Briefly, male Swiss Webster mice were given a single injection of STZ (180 mg/kg i.p.) to induce insulin-deficient diabetes. […] The time from initiation of heating to paw withdrawal was recorded in 4 separate trials 5 minutes apart, with the median value of the last 3 trials used for each mouse.

Akt = experiment: Activation of Akt phosphorylation in HUVECs (Western blot); assay type: cell-based; conditions: HUVECs treated with peptide; Western blot anti-phospho-Akt / anti-Akt; FIG. 2
Description: In one assay for the activation of AKT by phosphorylation, HUVECs are purchased from Cell Applications (San Diego, Calif.) and grown in medium EGM-2 supplemented with 2% fetal calf serum (FCS) and penicillin/streptomycin (P/S) at 37° C. under air containing 5% CO2 in a humidified incubator. Preliminary experiments can be performed to determine the time course of the phosphorylation of Akt following stimulation by compounds that activated the tissue protective receptor. In some assays, the phosphorylation of Akt reaches a maximum 10 minutes following stimulation by compounds that activated the tissue protective receptor. After HUVECs are treated with tissue protective peptides or controls, cell lysates are prepared and Western blot is performed using anti-Akt and anti-phospho-Akt antibodies (Cell Signaling Technology, Danvers, Mass.). To perform the Western blot, cell lysates are subjected to SDS-PAGE, and transferred to nitrocellulose membranes (Amersham Biosciences, Piscataway, N.J.). The membrane is blocked for 1 h at room temperature with PBS containing 2% BSA and 0.05% Tween 20. The blots are incubated overnight at 4° C. or for 4 h at room temperature with a primary antibody against phospho-Akt, followed by incubation for 1 h with a secondary, horseradish peroxidase-conjugated antibody. Then the blots are reprobed with an antibody against Akt to confirm equal protein loading. […]

GDKA (Tissue protective peptide)
thermal threshold (thermal withdrawal latency) ([1]; eye drops 50 microliters of 50 nanomolar solution to both eyes five days/week, after 12 weeks of therapy): normal thermal threshold
thermal threshold compared with PBS-treated diabetic mice ([1]; eye drops 50 nanomolar, five days/week, 12 weeks): significantly lower
activation of AKT (phosphorylation of Akt) (Akt): activated AKT
